# Tested on: db/db mice
# Test: CKD mice study: db/db mice fed test diets for 8 weeks (glomerular hyperfiltration, glycogen storage, kidney histology)
# Assay type: in vivo
# Experimental: The present study used db/db mice at 8 weeks of age for 8 weeks of intervention. The mice were divided into 4 groups of 9-10 mice administered with different blends (the Control group was administered with standard AIN-93M diet, the Dapa Group was administered standard AIN-93M augmented with dapagliflozin at 10 mg/kg, the RPB group was administered a standard diet augmented with a renal protection blend, the RPB+ group was administered a standard diet augmented with a renal protection blend that included medium chain triglycerides); the diets are shown in Table 1. The blends were administered to study glomerular hyperfiltration and glycogen storage in tissues. Final weekly food intake, final body weight, final blood glucose level, final lean body mass, and final fat mass of the groups is presented in Table 2. Also presented in table 2 were GFR progression, urine albumin/creatine ratio, urine protein/creatinine ratio, glomerulosclerosis score, Periodic acid-Schiff (PAS) staining scores for distal convoluted tubule (DCT) lumen, PAS staining scores for intranuclear inclusions distal tubules, and PAS staining scores for cytoplamis aggregates distal tubules.
# In addition to the measurements of Table 2, the mice were measured for hyalinosis on a scoring system of no hyalinosis, intermediate hyalinosis, or severe hyalinosis, where hyalinosis refers to the thickening of the walls of the glomerular arterioles by the deposits of homogenous hyaline material. […] The control group had 1 mouse with no hyalinosis, 4 mice with intermediate hyalinosis, and 4 with significant hyalinosis; the dapa group had 2 mice with no hyalinosis, 5 mice with intermediate hyalinosis, and 2 mice with significant hyalinosis, the RPB group had 5 mice with no hyalinosis, 4 mice with intermediate hyalinosis, and 1 mouse with significant hyalinosis, and the RPB+ group had 2 mice with no hyalinosis and 8 mice with intermediate hyalinosis.
# [1] = glomerular arterioles, groups of 9-10
# [2] = kidney tissue, 8 weeks of intervention
smiles,measurement,setting,value
"CCOc1ccc(Cc2cc([C@@H]3O[C@H](CO)[C@@H](O)[C@H](O)[C@H]3O)ccc2Cl)cc1 [Dapa, dapagliflozin]",GFR progression,8 weeks of intervention,0.01 mL/min
same,Blood glucose (final),after 8 weeks of intervention,464.78 mg/dL
same,Fat mass (final),after 8 weeks of intervention,23.99 g
same,Lean mass (final lean body mass),after 8 weeks of intervention,15.31 g
same,number of mice with intermediate hyalinosis,[1],5 mice
same,number of mice with no hyalinosis,[1],2 mice
same,number of mice with significant (severe) hyalinosis,[1],2 mice
same,Glomerulosclerosis score,[2],1.83
same,"PAS DCT lumen (PAS staining score, distal convoluted tubule lumen)",[2],1.44
same,"PAS cytoplasmic aggregates DT (PAS staining score, distal tubules)",[2],1.78
same,"PAS intranuclear inclusions DT (PAS staining score, distal tubules)",[2],2.11
same,Albumin/Creatinine ratio,"urine, 8 weeks of intervention",181.54
same,Protein/Creatinine ratio,"urine, 8 weeks of intervention",36.92

# Reference: patent US20240115540A1, “METHODS FOR PROVIDING HEALTH BENEFITS IN ANIMALS” (Société des Produits Nestlé S.A., priority 2022, published 2024)
